Here are results for 7 compounds from patent US6992169B2, “Carrier based drug delivery system” (Cyclacel Limited, priority 1998, dated 2006).

For data set [1], the target named is purified recombinant human topoisomerase II (Homo sapiens, UniProt P11388). Description: Topoisomerase II inhibition assay (cleavage and relaxation). The format is biochemical. The note with it: test compound at 1 mM, 100 μM, or 10 μM; plasmid DNA, agarose gel. How it is done:
Topoisomerase II assay—Plasmid DNA (0.3 μg) was incubated at 37° C. with 4 units of purified recombinant human topoisomerase II in cleavage buffer (30 mM Tris.HCl, pH 7.6, 60 mM NaCl, 3 mM ATP, 15 mM mercaptoethanol, 8 mM MgCl2) with or without the addition of test compound (at 1 mM, 100 μM, or 10 μM final concentration). Reactions were stopped by the immediate addition of SDS (1% w/v final). Samples were treated with proteinase K (30 min at 37° C.) and extracted twice with an equal volume of […] CHCl3/i-amyl alcohol. […] Topoisomerase II inhibition was judged by the production of linear plasmid DNA, representing trapped cleavage intermediate, and by the ratio of substrate (spercoiled DNA) to product (relaxed DNA). A relaxation assay was performed identically, except that the reaction buffer was optimised for the detection of catalysis rather than cleavage, i.e. only 2 units of enzyme were used per sample. The reaction buffer was 50 mM Tris.HCl, pH 8, 120 mM KCl, 0.5 mM ATP, 0.5 mM dithiothreitol, 10 mM MgCl2. Topoisomerase II inhibition was judged by the ratio of substrate (supercoiled DNA) to product (relaxed DNA).

A short description of data set [2]: Carcinoma cell line panel, SRB-assay. How it is done:
(§1) After incubation for 96 h, cytotoxicity was assessed using a standard SRB-assay.
(In general: The SRB assay estimates cell density from bound dye.)

For the next data set, the system named is HL60 cells. In words: Intracellular stability. The format is in vitro ADME. The note with it: 15 μM for 1 h, washed, 1 additional h neat medium. How it is done:
After the incubation, cells were washed extensively with PBS until no test compound was detectable in the washes. Cells were incubated for one additional h with neat medium. Afterwards the cells were pelleted, resuspended in 50 mM Tris pH 7.5, containing a cocktail of protease inhibitors and they were solubilised by ultrasonication for 1 min. The insoluble fraction was pelleted for 15 min using an Eppendorf centrifuge and the supernatant was analysed by anal. RP-HPLC (0-60% MeCN gradient, λ=254 nm).

Data set [3] in a line: Serum stability of drug-ester linkages. It is filed as in vitro ADME. The note with it: bovine; 10% FCS in DMEM, 1 to 40 μM, 37° C.; appearance of free drug; read-out: Serum t1/2 of Drug-Linker Ester bond. As for the experimental part:
Hydrolysis of the ester bonds between the drug hydroxy groups and the linker carboxyl groups was assessed by appearance of free podophyllotoxin or paclitaxel.

Another data set relates to COLO205. Description: Carcinoma cell line panel, SRB-assay. The note with it: Homo sapiens, COLO 205, 96 h, read-out: 96-h IC50 cytotoxicity. As for the experimental part: as §1
Another data set concerns LIM1215. Description: Carcinoma cell line panel, SRB-assay. The note with it: LIM1215, 96 h, read-out: 96-h IC50 cytotoxicity. As for the experimental part: as §1
A further data set concerns A2780. In words: Carcinoma cell line panel, SRB-assay. The note with it: Homo sapiens, A2780, 96 h, read-out: 96-h IC50 cytotoxicity. As for the experimental part: as §1
In another data set the test system is LS174T. Description: Carcinoma cell line panel, SRB-assay. The note with it: Homo sapiens, 96 h, read-out: 96-h IC50 cytotoxicity. How it is done:
as §1

A further data set concerns KM12. Description: Carcinoma cell line panel, SRB-assay. The note with it: Homo sapiens, KM12, 96 h, read-out: 96-h IC50 cytotoxicity. How it is done: as §1
Another data set has as its system CH1. Description: Carcinoma cell line panel, SRB-assay. The note with it: Homo sapiens, CH1, 96 h, read-out: 96-h IC50 cytotoxicity. As for the experimental part:
as §1

Another data set relates to SKOV-3. In words: Carcinoma cell line panel, SRB-assay. The note with it: Homo sapiens, SK-OV-3, 96 h, read-out: 96-h IC50 cytotoxicity. How it is done:
as §1

In the next data set the test system is DLD-1. Description: Carcinoma cell line panel, SRB-assay. The note with it: Homo sapiens, DLD-1, 96 h, read-out: 96-h IC50 cytotoxicity. How it is done:
as §1

The test system of another data set is BE. In words: Carcinoma cell line panel, SRB-assay. The note with it: 96 h, read-out: 96-h IC50 cytotoxicity. How it is done: as §1
For a further data set, the system named is CH1Dox^R. Description: Carcinoma cell line panel, SRB-assay. The note with it: 96 h, read-out: 96-h IC50 cytotoxicity. As for the experimental part:
as §1

The next data set concerns HT29. Description: Carcinoma cell line panel, SRB-assay. The note with it: Homo sapiens, HT-29, 96 h, read-out: 96-h IC50 cytotoxicity. How it is done: as §1
In another data set the test system is HCT116. Description: Carcinoma cell line panel, SRB-assay. The note with it: Homo sapiens, HCT-116, 96 h, read-out: 96-h IC50 cytotoxicity. As for the experimental part:
as §1

The test system of the next data set is CH1Taxol^R. Description: Carcinoma cell line panel, SRB-assay. The note with it: 96 h, read-out: 96-h IC50 cytotoxicity. As for the experimental part: as §1
The test system of the next data set is A2780Cis^R. In words: Carcinoma cell line panel, SRB-assay. The note with it: Homo sapiens, A2780cisR, 96 h, read-out: 96-h IC50 cytotoxicity. As for the experimental part: as §1
In a further data set the test system is A549 lung carcinoma. In words: Cytotoxic activity, MTT-assay. The format is cell-based. The note with it: Homo sapiens. How it is done:
(§2) Assay procedure—Cells were seeded into 96-well plates at 2,500 cells per well in DMED, containing 10% FCS and antibiotics. After overnight incubation, test compounds were prepared as dilution series in cell medium (addition of dimethylsulfoxide in the case of free paclitaxel to effect partial dissolution) and were added to the cells. For the 1-h exposure samples, incubation was continued for 1 h, cell culture medium supernatants were removed and the wells were further washed with cell culture medium (5×2 min). Total viable cells were quantitated after a total of 72 h incubation using a standard MTT-assay.
(In general: Formazan colour is commonly taken as a measure of viable cells.)

The next data set deals with MCF7 breast carcinoma. Description: Cytotoxic activity, MTT-assay. The format is cell-based. The note with it: Homo sapiens. How it is done:
as §2

By IC50 is commonly meant the concentration at which inhibition is half-maximal.

Chain of purified recombinant human topoisomerase II (P11388 whole entry): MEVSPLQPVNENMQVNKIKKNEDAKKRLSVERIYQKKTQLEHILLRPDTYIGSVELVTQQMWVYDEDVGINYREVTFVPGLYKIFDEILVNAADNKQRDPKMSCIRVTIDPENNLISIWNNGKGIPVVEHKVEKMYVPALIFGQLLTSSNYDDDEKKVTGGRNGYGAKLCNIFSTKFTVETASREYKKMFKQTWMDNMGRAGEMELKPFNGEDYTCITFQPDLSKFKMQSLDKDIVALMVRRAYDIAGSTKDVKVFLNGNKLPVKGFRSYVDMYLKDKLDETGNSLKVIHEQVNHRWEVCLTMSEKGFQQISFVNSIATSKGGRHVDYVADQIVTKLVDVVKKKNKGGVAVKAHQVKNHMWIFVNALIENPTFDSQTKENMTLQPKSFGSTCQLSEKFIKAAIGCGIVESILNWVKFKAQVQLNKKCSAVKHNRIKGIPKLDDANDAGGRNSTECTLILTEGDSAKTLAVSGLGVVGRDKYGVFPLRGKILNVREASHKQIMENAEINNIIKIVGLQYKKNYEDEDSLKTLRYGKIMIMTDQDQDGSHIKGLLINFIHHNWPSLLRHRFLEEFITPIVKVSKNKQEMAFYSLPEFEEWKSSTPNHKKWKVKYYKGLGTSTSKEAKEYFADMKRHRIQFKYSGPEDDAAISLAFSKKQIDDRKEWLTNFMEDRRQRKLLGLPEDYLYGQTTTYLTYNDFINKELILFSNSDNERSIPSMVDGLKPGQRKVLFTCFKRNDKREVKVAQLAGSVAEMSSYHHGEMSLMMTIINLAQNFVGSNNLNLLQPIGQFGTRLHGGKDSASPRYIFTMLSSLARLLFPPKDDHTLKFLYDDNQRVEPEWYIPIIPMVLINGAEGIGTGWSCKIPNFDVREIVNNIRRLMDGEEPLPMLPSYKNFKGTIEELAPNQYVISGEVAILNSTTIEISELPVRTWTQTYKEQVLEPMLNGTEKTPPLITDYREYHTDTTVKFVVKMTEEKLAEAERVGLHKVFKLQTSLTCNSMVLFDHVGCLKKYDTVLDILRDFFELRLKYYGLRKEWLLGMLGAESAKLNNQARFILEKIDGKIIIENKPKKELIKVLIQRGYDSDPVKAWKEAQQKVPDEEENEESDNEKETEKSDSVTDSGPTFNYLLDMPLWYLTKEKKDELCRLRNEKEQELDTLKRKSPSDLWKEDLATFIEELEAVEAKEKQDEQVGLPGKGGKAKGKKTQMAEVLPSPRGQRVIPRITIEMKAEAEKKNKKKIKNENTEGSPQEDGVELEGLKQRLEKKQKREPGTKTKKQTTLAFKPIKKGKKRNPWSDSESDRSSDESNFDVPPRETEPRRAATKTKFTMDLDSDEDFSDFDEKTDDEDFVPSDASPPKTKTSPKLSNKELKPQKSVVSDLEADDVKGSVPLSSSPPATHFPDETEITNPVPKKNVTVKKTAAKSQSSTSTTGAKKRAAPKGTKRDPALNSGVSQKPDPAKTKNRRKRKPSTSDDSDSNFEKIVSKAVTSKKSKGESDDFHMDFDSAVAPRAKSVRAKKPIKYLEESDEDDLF

As for “4′-Demethyl-4-[4″-aminoanilino-(succinimidopropionoyl)-(H-Cys-βAla-Arg-Arg-Met-Lys-Trp-Lys-Lys-NH2)]epipodophyllotoxin”, the Activity observed result in [1] was “I”.

As for `COc1cc([C@@H]2c3cc4c(cc3[C@@H](Nc3ccc(N)cc3)[C@H]3COC(=O)[C@H]23)OCO4)cc(OC)c1O` [4′-Demethyl-4-(4″-aminoanilino)epipodophyllotoxin], the Activity observed entry in [1] is “I”.

In data set [2], `CC[C@H](C)[C@H](NC(=O)[C@H](CCCCN)NC(=O)[C@@H](NC(=O)[C@H](CCC(N)=O)NC(=O)[C@H](CCCNC(=N)N)NC(=O)[C@@H](N)CSC1CC(=O)N(CCC(=O)O[C@H]2C[C@H]3OC[C@@]3(OC(C)=O)[C@H]3[C@H](OC(=O)c4ccccc4)[C@]4(O)C[C@H](OC(=O)[C@H](O)[C@@H](NC(=O)c5ccccc5)c5ccccc5)C(C)=C([C@@H](OC(C)=O)C(=O)[C@]23C)C4(C)C)C1=O)[C@@H](C)CC)C(=O)N[C@@H](Cc1c[nH]c2ccccc12)C(=O)N[C@@H](Cc1ccccc1)C(=O)N[C@@H](CCC(N)=O)C(=O)N[C@@H](CC(N)=O)C(=O)N[C@@H](CCCNC(=N)N)C(=O)N[C@@H](CCCNC(=N)N)C(=O)N[C@@H](CCSC)C(=O)N[C@@H](CCCCN)C(=O)N[C@@H](Cc1c[nH]c2ccccc12)C(=O)N[C@@H](CCCCN)C(=O)N[C@@H](CCCCN)C(=O)O` (stereo partly drawn) [7-Paclitaxel Vector Conjugate] had an IC50 at 96 h above 25000 nM.

For `CCC(C)[C@H](NC(=O)[C@H](CCCCN)NC(=O)[C@@H](NC(=O)[C@H](CCC(N)=O)NC(=O)[C@H](CCCNC(=N)N)NC(=O)[C@@H](N)CSC1CC(=O)N(CCC(=O)O[C@H]2c3cc4c(cc3[C@@H](c3cc(OC)c(OC)c(OC)c3)[C@H]3C(=O)OC[C@@H]32)OCO4)C1=O)C(C)CC)C(=O)N[C@@H](Cc1c[nH]c2ccccc12)C(=O)N[C@@H](Cc1ccccc1)C(=O)N[C@@H](CCC(N)=O)C(=O)N[C@@H](CC(N)=O)C(=O)N[C@@H](CCCNC(=N)N)C(=O)N[C@@H](CCCNC(=N)N)C(=O)N[C@@H](CCSC)C(=O)N[C@@H](CCCCN)C(=O)N[C@@H](Cc1c[nH]c2ccccc12)C(=O)N[C@@H](CCCCN)C(=O)N[C@@H](CCCCN)C(N)=O` (stereo partly drawn) [A], in the data set on HL60 cells (RP-HPLC and MALDI-TOF MS), the “Intact test compound in supernatant of solubilised cells” value is recorded as “Intact test compound was identified”. Moreover, the “Test compound in DMSO extracts of pellets” value with HL60 cells (insoluble fraction) is “no test compound was detected”. In addition, the half-life in data set [3] was above 1440 min.

For the compound `CCC(C)[C@H](NC(=O)[C@H](CCCCN)NC(=O)[C@@H](NC(=O)[C@H](CCC(N)=O)NC(=O)[C@H](CCCNC(=N)N)NC(=O)[C@@H](N)CSCC(=O)O[C@H]1c2cc3c(cc2[C@@H](c2cc(OC)c(OC)c(OC)c2)[C@H]2C(=O)OC[C@@H]21)OCO3)C(C)CC)C(=O)N[C@@H](Cc1c[nH]c2ccccc12)C(=O)N[C@@H](Cc1ccccc1)C(=O)N[C@@H](CCC(N)=O)C(=O)N[C@@H](CC(N)=O)C(=O)N[C@@H](CCCNC(=N)N)C(=O)N[C@@H](CCCNC(=N)N)C(=O)N[C@@H](CCSC)C(=O)N[C@@H](CCCCN)C(=O)N[C@@H](Cc1c[nH]c2ccccc12)C(=O)N[C@@H](CCCCN)C(=O)N[C@@H](CCCCN)C(=O)O` (stereo partly drawn) [B], in data set [3], the half-life amounted to 40 min.

`COc1cc([C@@H]2c3cc4c(cc3[C@@H](O[C@@H]3O[C@@H]5CO[C@@H](C)O[C@H]5[C@H](O)[C@H]3O)[C@H]3COC(=O)[C@H]23)OCO4)cc(OC)c1O` [Etoposide]: the half-maximal inhibitory concentration (IC50) in the data set on COLO205 was 800 nM; in the data set on LIM1215, 330 nM; in the data set with A2780, 210 nM; in the data set with LS174T, 460 nM; with KM12, 580 nM; with CH1, 165 nM. The IC50 with SKOV-3 was determined as 13000 nM; in the data set with DLD-1, 570 nM; in the data set on BE, 1100 nM; in the data set on CH1Dox^R, 6600 nM; in the data set with HT29, 2600 nM; with HCT116, 1900 nM. Besides, the IC50 was determined as 145 nM with CH1Taxol^R and 680 nM with A2780Cis^R.

`CC(=O)O[C@H]1C(=O)[C@@]2(C)[C@H]([C@H](OC(=O)c3ccccc3)[C@]3(O)C[C@H](OC(=O)[C@H](O)[C@@H](NC(=O)c4ccccc4)c4ccccc4)C(C)=C1C3(C)C)[C@]1(OC(C)=O)CO[C@@H]1C[C@@H]2O` [Paclitaxel]: the half-maximal inhibitory concentration (IC50) is 2.6 nM with COLO205; 5.8 nM with LIM1215; below 2.5 nM in the data set on A2780; 8.5 nM in the data set with LS174T; 2.85 nM in the data set with KM12; 4.15 nM in the data set on CH1. Also, the IC50 in the data set on SKOV-3 was 10 nM; with DLD-1, 54 nM; with BE it was below 2.5 nM; with CH1Dox^R, 540 nM; in the data set with HT29, below 2.5 nM; with HCT116, below 2.5 nM. The IC50 in the data set with CH1Taxol^R is 5.8 nM; in the data set on A2780Cis^R, 5.1 nM; with A549 lung carcinoma (72 h, A549, Exposure time 3 d), below 15 nM; in the data set on A549 lung carcinoma (A549, Exposure time 1 h, then washed, viable cells after total 72 h) it was 28 nM; with MCF7 breast carcinoma (72 h, MCF7, Exposure time 3 d), below 15 nM; in the data set with MCF7 breast carcinoma (MCF7, Exposure time 1 h, then washed, viable cells after total 72 h) it was 40 nM.
